Earlier results on two compounds are cited in patent publication US12569475B2, “Method for eradicating helicobacter pylori infection in patients regardless of body mass index” (RedHill Biopharma Ltd., priority 2020, dated 2026).

Values after ≈ are worked out from the molar mass of the structure shown. Structures can show the parent of a compound that is named as a salt. Where two headings read alike, the source gives them in different places.

`COc1ccc2[nH]c([S+]([O-])Cc3ncc(C)c(OC)c3C)nc2c1` (racemic) [Omeprazole magnesium, 5-methoxy-2-[[(4-methoxy-3,5-dimethyl-2-pyridyl)methyl]sulfinyl]benzimidazole, (RS) magnesium salt (2:1)]: the solubility in methanol entry is given as “soluble”. Under “water at 25° C.”, the solubility in water was 250 µg/mL.

`CO[C@H]1/C=C/O[C@@]2(C)Oc3c(C)c(O)c4c(c3C2=O)C2=NC3(CCN(CC(C)C)CC3)NC2=C(NC(=O)/C(C)=C\C=C\[C@H](C)[C@H](O)[C@@H](C)[C@@H](O)[C@@H](C)[C@H](OC(C)=O)[C@@H]1C)C4=O` [Rifabutin, (9S,12E,14S,15R,16S,17R,18R,19R,20S,21S,22E,24Z)-6-16,18,20-tetrahydroxy-1′-isobutyl-14-methoxy-7,9,15,17,19,21,25-heptamethylspiro [9,4-(epoxypentadeca[1,11,13]trienimino)-2H-furo[2′,3′:7,8]naphth[1,2-d]imidazole-2,4′-piperidine]-5,10,26-(3H,9H)-trione-16-acetate]: the solubility in methanol result was “soluble”. For the same compound, the solubility in chloroform result (chloroform) was “soluble”. For the same compound, the solubility in ethanol result (ethanol) is recorded as “sparingly soluble”. Moreover, the solubility in water (water) was 190 µg/mL (≈ 224 µM).
